According to PubChem BioAssay AID2060498 (Molecular Pharmacology Branch, DTP, NCI, 2025):

System: 171881-019-R-J1-PDC tumor spheroids, viability
Assay: Anticancer human tumor 171881-019-R-J1-PDC patient-derived invasive breast carcinoma cell line growth inhibition [GQUAD]
Conditions: spheroids with HUVEC and MSC; for IC50: curve of first compound; for viability, T/C: stronger effect = lower value
Procedure, shortened: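 Multi-cell-type spheroids of tumor cells with HUVEC and mesenchymal stem cells, treated with drug combinations. Concentrations descend in half-log steps from near clinical Cmax, or from 10 microM where Cmax is unknown; viability read-out.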

[1] = second compound 0.0316 µM, first compound 0.0316 µM
[2] = second compound 0.0316 µM, first compound 0.1 µM
[3] = second compound 0.0316 µM, first compound 0.316 µM
[4] = second compound 0.0316 µM, first compound 1 µM
[5] = second compound 0.0316 µM, first compound 3.16 µM
[6] = second compound 0.0316 µM, first compound 10 µM
[7] = second compound 0.1 µM, first compound 0.0316 µM
[8] = second compound 0.1 µM, first compound 0.1 µM
[9] = second compound 0.1 µM, first compound 0.316 µM
[10] = second compound 0.1 µM, first compound 1 µM
[11] = second compound 0.1 µM, first compound 3.16 µM
[12] = second compound 0.1 µM, first compound 10 µM
[13] = second compound 0.316 µM, first compound 0.0316 µM
[14] = second compound 0.316 µM, first compound 0.1 µM
[15] = second compound 0.316 µM, first compound 0.316 µM
[16] = second compound 0.316 µM, first compound 1 µM
[17] = second compound 0.316 µM, first compound 3.16 µM
[18] = second compound 0.316 µM, first compound 10 µM
[19] = second compound 1 µM, first compound 0.0316 µM
[20] = second compound 1 µM, first compound 0.1 µM
[21] = second compound 1 µM, first compound 0.316 µM
[22] = second compound 1 µM, first compound 1 µM
[23] = second compound 1 µM, first compound 3.16 µM
[24] = second compound 1 µM, first compound 10 µM
[25] = second compound 3.16 µM, first compound 0.0316 µM
[26] = second compound 3.16 µM, first compound 0.1 µM
[27] = second compound 3.16 µM, first compound 0.316 µM
[28] = second compound 3.16 µM, first compound 1 µM
[29] = second compound 3.16 µM, first compound 3.16 µM
[30] = second compound 3.16 µM, first compound 10 µM
[31] = second compound 10 µM, first compound 0.0316 µM
[32] = second compound 10 µM, first compound 0.1 µM
[33] = second compound 10 µM, first compound 0.316 µM
[34] = second compound 10 µM, first compound 1 µM
[35] = second compound 10 µM, first compound 3.16 µM
[36] = second compound 10 µM, first compound 10 µM
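Further: spheroids exposed to compounds for 7 days.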
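Wherever viability, T/C is given: 100% = DMSO vehicle control viability.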

`CC(C)n1c(=O)n(C)c2cnc3cc(F)c(-c4ccc(OCCCN5CCCCC5)nc4)cc3c21` + CN(C)c1ccc(Nc2c3ccc(NC(=O)CCN4CCCC4)cc3nc3cc(NC(=O)CCN4CCCC4)ccc23)cc1 gave an IC50 (second compound 0.0316 µM) of 2410 nM, an IC50 (second compound 0.1 µM) of 2210 nM and an IC50 (second compound 0.316 µM) of 670 nM. For the same compound, the IC50 (second compound 1 µM) was under 31.6 nM, the IC50 (second compound 3.16 µM) was under 31.6 nM and the IC50 (second compound 10 µM) was under 31.6 nM. For the same compound, the viability, T/C [1] was 95.7%, the viability, T/C [2] was 100% and the viability, T/C [3] was 88.1%. For the same compound, the viability, T/C [4] was 80.4%, the viability, T/C [5] was 40.4% and the viability, T/C [6] was 12.9%. It also gave a viability, T/C [7] of 93%, a viability, T/C [8] of 108% and a viability, T/C [9] of 92%. It also gave a viability, T/C [10] of 84.9%, a viability, T/C [11] of 34.3% and a viability, T/C [12] of 9.41%. For the same compound, the viability, T/C [13] was 82.2%, the viability, T/C [14] was 79.6% and the viability, T/C [15] was 69.3%. It also gave a viability, T/C [16] of 37.6%, a viability, T/C [17] of 20.3% and a viability, T/C [18] of 4.16%. The viability, T/C [19] was 18.5%, the viability, T/C [20] was 16.8% and the viability, T/C [21] was 19.4%. For the same compound, the viability, T/C [22] was 8.58%, the viability, T/C [23] was 6.36% and the viability, T/C [24] was 1.3%. It also gave a viability, T/C [25] of 1.45%, a viability, T/C [26] of 1.78% and a viability, T/C [27] of 1.74%. The viability, T/C [28] was 1.06%, the viability, T/C [29] was 1.03% and the viability, T/C [30] was 0.15%. It also gave a viability, T/C [31] of 0.27%, a viability, T/C [32] of 0.4% and a viability, T/C [33] of 0.34%. It also gave a viability, T/C [34] of 0.37%, a viability, T/C [35] of 0.25% and a viability, T/C [36] of 0.28%.
`CC1COCCN1c1cc(-c2ccnn2C)c2ccnc(-c3ccn[nH]3)c2n1` (stereo not drawn) + CN(C)c1ccc(Nc2c3ccc(NC(=O)CCN4CCCC4)cc3nc3cc(NC(=O)CCN4CCCC4)ccc23)cc1 showed an IC50 (second compound 0.0316 µM) of 65.2 nM, an IC50 (second compound 0.1 µM) of 51.9 nM and an IC50 (second compound 0.316 µM) of 40.8 nM. It also gave an IC50 (second compound 1 µM) of under 31.6 nM, an IC50 (second compound 3.16 µM) of under 31.6 nM and an IC50 (second compound 10 µM) of under 31.6 nM. For the same compound, the viability, T/C [1] was 76.9%, the viability, T/C [2] was 34.1% and the viability, T/C [3] was 12.4%. For the same compound, the viability, T/C [4] was 5.31%, the viability, T/C [5] was 1.79% and the viability, T/C [6] was 1.42%. For the same compound, the viability, T/C [7] was 64.8%, the viability, T/C [8] was 30.4% and the viability, T/C [9] was 11.6%. The viability, T/C [10] was 5.34%, the viability, T/C [11] was 1.93% and the viability, T/C [12] was 1.63%. The viability, T/C [13] was 55.2%, the viability, T/C [14] was 31.6% and the viability, T/C [15] was 10.3%. For the same compound, the viability, T/C [16] was 3.25%, the viability, T/C [17] was 1.4% and the viability, T/C [18] was 1.07%. It also gave a viability, T/C [19] of 20.7%, a viability, T/C [20] of 8.28% and a viability, T/C [21] of 4.88%. It also gave a viability, T/C [22] of 1.45%, a viability, T/C [23] of 0.66% and a viability, T/C [24] of 0.48%. The viability, T/C [25] was 1.59%, the viability, T/C [26] was 1.01% and the viability, T/C [27] was 0.89%. For the same compound, the viability, T/C [28] was 0.34%, the viability, T/C [29] was 0.71% and the viability, T/C [30] was 0.14%. It also gave a viability, T/C [31] of 0.16%, a viability, T/C [32] of 0.3% and a viability, T/C [33] of 0.33%. It also gave a viability, T/C [34] of 0.32%, a viability, T/C [35] of 0.43% and a viability, T/C [36] of 0.14%.
In the case of `CC1COCCN1c1cc(C2(O)CC3CCC(C2)O3)c2cnn(-c3ccn[nH]3)c2n1` (stereo not drawn) + CN(C)c1ccc(Nc2c3ccc(NC(=O)CCN4CCCC4)cc3nc3cc(NC(=O)CCN4CCCC4)ccc23)cc1, the IC50 (second compound 0.0316 µM) is reported as under 31.6 nM, the IC50 (second compound 0.1 µM) is reported as under 31.6 nM and the IC50 (second compound 0.316 µM) is reported as under 31.6 nM. For the same compound, the IC50 (second compound 1 µM) was under 31.6 nM, the IC50 (second compound 3.16 µM) was under 31.6 nM and the IC50 (second compound 10 µM) was under 31.6 nM. It also gave a viability, T/C [1] of 48%, a viability, T/C [2] of 16.6% and a viability, T/C [3] of 5.6%. The viability, T/C [4] was 1.83%, the viability, T/C [5] was 1.12% and the viability, T/C [6] was 0.76%. It also gave a viability, T/C [7] of 47.5%, a viability, T/C [8] of 15.7% and a viability, T/C [9] of 5.27%. The viability, T/C [10] was 1.88%, the viability, T/C [11] was 1.2% and the viability, T/C [12] was 1.32%. For the same compound, the viability, T/C [13] was 41.9%, the viability, T/C [14] was 13.6% and the viability, T/C [15] was 4.24%. The viability, T/C [16] was 1.41%, the viability, T/C [17] was 1.02% and the viability, T/C [18] was 0.73%. The viability, T/C [19] was 12.1%, the viability, T/C [20] was 4.72% and the viability, T/C [21] was 2.23%. For the same compound, the viability, T/C [22] was 0.4%, the viability, T/C [23] was 0.33% and the viability, T/C [24] was 0.3%. For the same compound, the viability, T/C [25] was 1.34%, the viability, T/C [26] was 0.9% and the viability, T/C [27] was 0.41%. For the same compound, the viability, T/C [28] was 0.14%, the viability, T/C [29] was 0.16% and the viability, T/C [30] was 0.2%. It also gave a viability, T/C [31] of 0.14%, a viability, T/C [32] of 0.25% and a viability, T/C [33] of 0.42%. For the same compound, the viability, T/C [34] was 0.25%, the viability, T/C [35] was 0.16% and the viability, T/C [36] was 0.14%.
In the case of `O=C(c1cc(Cc2n[nH]c(=O)c3ccccc23)ccc1F)N1CCN(C(=O)C2CC2)CC1` + CN(C)c1ccc(Nc2c3ccc(NC(=O)CCN4CCCC4)cc3nc3cc(NC(=O)CCN4CCCC4)ccc23)cc1, the IC50 (second compound 0.0316 µM) is reported as over 10000 nM, the IC50 (second compound 0.1 µM) is reported as over 10000 nM and the IC50 (second compound 0.316 µM) is reported as over 10000 nM. The IC50 (second compound 1 µM) was under 31.6 nM, the IC50 (second compound 3.16 µM) was under 31.6 nM and the IC50 (second compound 10 µM) was under 31.6 nM. The viability, T/C [1] was 98.5%, the viability, T/C [2] was 98.5% and the viability, T/C [3] was 107%. The viability, T/C [4] was 96.3%, the viability, T/C [5] was 90.7% and the viability, T/C [6] was 94.2%. It also gave a viability, T/C [7] of 107%, a viability, T/C [8] of 95.4% and a viability, T/C [9] of 91.1%. The viability, T/C [10] was 109%, the viability, T/C [11] was 91.7% and the viability, T/C [12] was 86.3%. It also gave a viability, T/C [13] of 86.5%, a viability, T/C [14] of 94.1% and a viability, T/C [15] of 80.3%. The viability, T/C [16] was 78.5%, the viability, T/C [17] was 82% and the viability, T/C [18] was 60.8%. The viability, T/C [19] was 31.7%, the viability, T/C [20] was 19.5% and the viability, T/C [21] was 25.3%. For the same compound, the viability, T/C [22] was 18.4%, the viability, T/C [23] was 20.2% and the viability, T/C [24] was 17.3%. The viability, T/C [25] was 1.55%, the viability, T/C [26] was 1.44% and the viability, T/C [27] was 1.96%. The viability, T/C [28] was 1.41%, the viability, T/C [29] was 1.97% and the viability, T/C [30] was 1.2%. For the same compound, the viability, T/C [31] was 0.28%, the viability, T/C [32] was 0.36% and the viability, T/C [33] was 0.35%. For the same compound, the viability, T/C [34] was 0.57%, the viability, T/C [35] was 0.69% and the viability, T/C [36] was 0.32%.
